Measured values reported in patent publication US20240002379A1, “ASYMMETRIC CONJUGATE COMPOUNDS” (Pheon Therapeutics Ltd., priority 2016, published 2024).
“Also recorded” adds a separate entry of the source. Like-named read-outs stand apart in the source and are kept apart here.

Key:
[1] = system: LIM1215 cell line (gastric); experiment: MTT cytotoxicity assay, LIM1215; format: cell-based; conditions: read-out: Cytotoxicity LIM1215 (72 hours)
Experimental: (§1) Tumor cell lines were maintained in RPMI1640 medium supplemented with 10% heat-inactivated fetal bovine serum, 2 mM L-glutamine and 1 mM sodium pyruvate. 1800 cells per well were seeded in a volume of 180 μl in a 96-well flat bottom polystyrene plate. The cells were allowed to adhere overnight at 37° C. in a CO2 incubator. Ligands were initially formulated in DMSO, and stocks stored at −80° C. They were then further formulated at lox concentration in RPMI1640 medium. 20 ul of diluted samples were added into each treatment well. On each plate, blank wells with no cells, and untreated wells containing cells, were included. Plates were then cultured at 37° C. in a CO2 incubator for 72 hrs. Cytotoxicity was evaluated using a tetrazolium salt-based assay, the MTT assay. After 72 hours, the supernatant was removed from each well and 200 μl of a sterile filtered 500 μg/ml MTT solution in water added to each well. The plates were then incubated at 37° C. in a CO2 incubator for 4 hrs. The supernatant was then removed and the formazan crystals formed solubilized by adding 150 μl of DMSO to each well. The plate was then read on a plate reader at 540 nm, and percentage cell survival calculated as follows: ((mean absorbance treated wells at concentration x−mean absorbance blank wells)[…](mean absorbance untreated wells at concentration x−mean absorbance blank wells))×100. Data were plotted as concentration in nM vs. % cell survival in Microsoft Excel, and IC50 values (concentration where cell survival is reduced by a half) were determined from the graph.

[2] = system: linear double-stranded HexARev DNA fragment; experiment: DNA cleavage assay, HexARev fragment; format: biochemical; conditions: ligand concentration 10 μM and 100 nM (FIG. 16)
Experimental: The ability of a further series of compounds 13, 42, 59, 99 and the PBD dimer Talirine to cross-link DNA was determined using an assay involving a linear double-stranded HexARev fragment (FIG. 15).
The ability of 13 and of a series of compounds to cleave double-stranded DNA was investigated using a modification of the previously established DNA footprinting assay (34). Following an overnight incubation of the ligand-DNA complexes, the mixture was mixed with strand separation buffer containing 10 mM EDTA, 10 mM NaOH, 0.1% bromophenol blue, 80% formamide and incubated at 100° C. for 3 min. The mixture was then immediately cooled on ice and run on an 8% denaturing gel. […] Using the GA marker, these additional bands were identified as cleavage products produced by 13 at certain A sites of the DNA fragment.
The preparation of the TyrT DNA fragment (FIG. 8) and HexARev DNA fragment (FIG. 15) have been previously described (34). Briefly, the sequence which had been cloned into the BamHI site of pUC18 was obtained by cutting with HindIII and EcoRI. Radiolabelled DNA fragments were prepared by filling in the 3′-end of the HindIII site with [α-^32P]dATP using Klenow DNA polymerase (exo-).
The radiolabelled DNA fragment was separated from the remainder of the plasmid DNA on a 6% non-denaturing polyacrylamide gel. The gel (20 cm long, 0.3 mm thick) was run at 400 V in 1×TBE running buffer for about 1-2 h, until the bromophenol blue had run most of the way down the gel. The glass plates were separated and the position of the labelled DNA fragment was established by short (1 min) exposure to an X-ray film. The relevant band was then cut from the gel and the radiolabelled DNA eluted by adding 300 μL 10 mM Tris-HCl, pH 7.5 containing 0.1 mM EDTA and gently agitating overnight at room temperature. The eluted DNA was finally precipitated with ethanol and re-suspended in a suitable volume of 10 mM Tris-HCl, pH 7.5 containing 0.1 mM EDTA buffer so as to give at least 10 counts per second/μL on a hand-held Geiger counter. With fresh plasmid and α-^32P-dATP this process typically generated about 150 μL of radiolabelled fragment DNA. The absolute concentration of the DNA is not important, and it is typically lower than 10 nM.
Compounds such as 13 were synthesised as described above and the PBD dimer Talirine was obtained from Aurum Pharmatech LLC. Stock solution was prepared by dissolving the ligands in DMSO to give a concentration of 10 mM. From this stock solution, working solutions of the desired concentration were prepared by diluting with 10 mM Tris-HCl, pH 7.5 containing 10 mM NaCl.
Radiolabelled DNA (1.5 μL) was mixed with 1.5 μL ligand solution of various concentrations (10 μM-10 nM) and incubated overnight at 37° C.
Labelled DNA (1.5 μL) was mixed with 20 μL sterile water and 5 μL of denaturing loading solution (80% formamide containing 10 mM EDTA, 10 mM NaOH, 0.01% bromophenol blue). The sample was then incubated at 100° C. for 20 min with the micro-centrifuge tube cap open to allow evaporation.
Loading solution (4.5 μL) was added to samples from Section 2.1. The digestion products were boiled for 3 min at 100° C. and quickly cooled on ice prior to electrophoresis. Separation was performed on an 8% denaturing polyacrylamide gel (40 cm long, 0.3 mm thick) at 1500V for about 2 h until the dye reached the bottom of the gel. […]

[3] = system: SW48 cell line (gastric); experiment: MTT cytotoxicity assay, SW48; format: cell-based; conditions: Homo sapiens, read-out: Cytotoxicity SW48 (72 hrs)
Experimental: as §1

[4] = system: SW620 cell line (gastric); experiment: MTT cytotoxicity assay, SW620; format: cell-based; conditions: Homo sapiens, read-out: Cytotoxicity SW620 (72 hours)
Experimental: as §1

[5] = system: three fluorescently labelled DNA sequences shown in FIG. 17; experiment: FRET DNA melting, the three DNA sequences shown in FIG. 17 together; format: binding; conditions: different concentrations, all three sequences, vs control DNA
Description: Further FRET DNA melting studies were undertaken on a number of molecules using three fluorescently labelled sequences. The sequences (FIG. 17) were designed to provide additional evidence that the series can form inter- and intrastrand cross-links. Inosines were inserted in place of traditional DNA bases in some cases to limit the number of binding sites available for the compounds to interact with. The short duplexes used in this FRET study are relatively unstable in the duplex form with a melting temperature below 30° C. so that, in the absence of ligand, a large part of the melting occurs below the starting temperature of the experiment. […] Increasing concentrations of 13 cause a greater amount of the melting transition to appear at the higher temperature (i.e. a greater number of the DNA molecules are cross-linked). A greater effect for 5′-AIIAGAITTTI′-3′ can be observed at lower concentrations of 13.
Oligonucleotides were obtained from ATDbio (Southampton, UK) in lyophilised form. They were labelled with a fluorophore molecule (F=fluorescein) at the 5′-end and a quencher molecule (Q=dabcyl) at the 3′-end of the complementary strand. Each oligonucleotide was dissolved in distilled H2O to form stock solutions of 100 PM. Working solutions of 5 μM were prepared by diluting the stock solution with distilled H2O.
The following buffers were used: 250 mM phosphate buffer pH 7.4 (consisting of sodium dihydrogen phosphate and sodium phosphate diluted in distilled H2O) and 5 M sodium chloride buffer. A11 buffers and distilled H2O were filtered through a […] filter prior to use.
For the FRET experiments a stock solutions were prepared by dissolving compound (such as compound 13) in DMSO to give a concentration of 10 mM. From this stock solution, working solutions of the desired concentration were prepared by diluting the stock solution with distilled H2O.
The reaction mixture was comprised of 4 μL of 250 mM phosphate buffer (final concentration of 50 mM), 4 μL flourophor and 4 μL quencher molecule of the appropriate oligonucleotide for a final concentration of 0.2 PM, 4 μL 5 M sodium chloride (final concentration of 1 M NaCl), and 4 μL of distilled H2O. This mixture was heated in an Eppendorf tube at 90° C. for 1 min and slowly cooled down to room temperature. This process was carried out to anneal the single strands to double-stranded DNA. Following this, 4 μL of the ligand was added in the desired concentration and the mixture incubated overnight either at room temperature or 4° C. A control sample of DNA only was prepared by mixing 4 μL 250 mM phosphate buffer (final concentration of 50 mM) with 4 μL fluorophore-labelled and 4 μL quencher-labelled oligonucleotides (of the appropriate sequence) to give a final concentration of 0.2 PM, 4 μL 5 M sodium chloride (final concentration of 1 M NaCl) and 4 μL distilled H2O. This mixture was analysed without prior annealing.
Fluorescence melting profiles were measured using a Roche LightCycler using a total reaction volume of 20 μL. Initially, the samples were denatured by heating to 95° C. at a rate of 1° C. min^−1. The samples were then maintained at 95° C. for 5 min before annealing by cooling to 25° C. at 1° C. min^−1. The samples were then held at 25° C. for a further 5 min and finally melted by heating to 95° C. at 1° C. min^−1. Annealing steps and melting steps were all recorded and changes in fluorescence were measured at 520 nm.
Tm values were obtained from the first derivates of the melting profiles using the Roche LightCycler software.

[6] = system: PC3 (prostate) cell line; experiment: MTT cytotoxicity assay, PC3; format: cell-based; conditions: read-out: Cytotoxicity PC3 (nM, 72 hour)
Experimental: as §1

[7] = system: FaDu (head and neck cancer) cell line; experiment: MTT cytotoxicity assay, FaDu; format: cell-based; conditions: Homo sapiens
Experimental: as §1

[8] = system: SW48 cell line; experiment: MTT cytotoxicity assay, SW48; format: cell-based; conditions: MTT assay, 72 hour incubation
Experimental: as §1

[9] = system: SW620 cell line; experiment: MTT cytotoxicity assay, SW620; format: cell-based; conditions: MTT assay, 72 hour incubation
Experimental: as §1

## COc1cc2c(cc1OCCCCCC(=O)N1C[C@@H](CCl)c3c1cc(O)c1ccccc31)N=C[C@@H]1CCCCN1C2=O [Compound 99, (S)-3-((6-((S)-1-(Chloromethyl)-5-hydroxy-1,2-dihydro-3H-benzo[e]indol-3-Y1)-6-oxohexyl)oxyl)-2-methoxy-7,8,9,10-tetrahydrobenzo-[e]pyrido[1,2-a][1,4]diazepin-12(6aH)-one]
[1]; LIM1215, MTT assay, 72 hour incubation
  IC50: 0.039 nM
[2]
  cleavage of HexARev DNA fragment: cleave DNA
[3]; SW48, MTT assay, 72 hour incubation
  IC50: 0.035 nM
[4]; SW-620, MTT assay, 72 hour incubation
  IC50: 0.045 nM

## COc1cc2c(cc1OCc1cccc(CC(=O)N3C[C@@H](CCl)c4c3cc(OC(=O)N3CCN(C)CC3)c3ccccc43)c1)N=C[C@@H]1CCCCN1C2=O [Compound 59, (S)-1-(Chloromethyl)-3-(2-(3-((((S)-2-methoxy-12-oxo-6a,7,8,9,10,12-hexahydrobenzo[e]pyrido[1,2-a][1,4]diazepin-3-yl)oxy)-methyl)phenyl)acetyl)-2,3-dihydro-1H-benzo[e]indol-5-yl 4-methyl-piperazine-1-carboxylate]
[5]
  effect on melting temperature / DNA stabilisation: does not impact on the stabilisation temperature of the parent DNA; also recorded: does not increase in proportion to the concentration
[6]; 72 h
  IC50: 900 nM
[2]
  cleavage of HexARev DNA fragment: limited cleavage
[7]; 72 h, read-out: IC50 value in FaDu (prodrug form)
  IC50: 4500 nM

## O=C(O)c1cc(OCc2ccccc2)c2ccccc2c1 [Compound 77, 4-(Benzyloxy)-2-naphthoic acid]
[2]
  cleavage of HexARev DNA fragment: distinct cleavage patterns

## COc1cc2c(cc1OCc1cccc(CC(=O)N3C[C@@H](CCl)c4c3cc(OC(=O)N3CCN(C)CC3)c3ccccc43)c1)NC(=O)[C@@H]1CCCCN1C2=O [Compound 140]
[1]; LIM1215, 72 h
  IC50: 18.1 nM
[8]
  Cytotoxicity SW48 (72 hrs): Not active
[9]
  Cytotoxicity SW620 (72 hours): Not active

## COc1cc2c(cc1OCCCC(=O)N1C[C@@H](CCl)c3c1cc(O)c1ccccc31)N=C[C@@H]1Cc3ccccc3CN1C2=O [Compound 53, (S)-3-(4-((S)-1-(Chloromethyl)-5-hydroxy-1,2-dihydro-3H-benzo[e]indol-3-yl)-4-oxobutoxy)-2-methoxy-7,12-dihydrobenzo[5,6][1,4]-diazepino[1,2-b]isoquinolin-14(6aH)-one]
[6]; MTT assay, 72 hour incubation
  IC50: 0.02 nM
[7]; MTT assay, 72 hour incubation, read-out: Cytotoxicity FaDu (nM, 72 hour)
  IC50: 0.65 nM

## COc1cc2c(cc1OCCCCCC(=O)N1C[C@@H](CCl)c3c1cc(OC(=O)N1CCN(C)CC1)c1ccccc31)N=C[C@@H]1CCCCN1C2=O [Compound 57, (S)-1-(Chloromethyl)-3-(6-(((S)-2-methoxy-12-oxo-6a,7,8,9,10,12-hexahydrobenzo[e]pyrido[1,2-a][1,4]diazepin-3-yl)oxy)hexanoyl)-2,3-dihydro-1H-benzo[e]indol-5-yl 4-methylpiperazine-1-carboxylate]
[1]; LIM1215, 72 h
  IC50: 0.41 nM
[6]; 72 h
  IC50: 3 nM
[3]; SW48, 72 h
  IC50: 0.042 nM
[4]; SW-620, 72 h
  IC50: 1.1 nM
[7]; 72 h, read-out: Cytotoxicity FaDu (nM, 72 hour)
  IC50: > 10 nM
